# Data from EP4177246A1, “FUSED OXAZEPINES AS INHIBITORS OF PEROXIREDOXINS” (Centro Atlántico del Medicamento, SA, priority 2021, dated 2023).
# Assays:
# K562 = assay: MTT cell viability assay, K562 cells; type: cell-based; conditions: Homo sapiens, 48 h drug exposure
# Summary of the method: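 Human CML-derived K562 cells seeded at 1000-5000/well with 10% FBS, treated after 24 h with compound (10 to 0,01 µM) or 0.05% DMSO vehicle for 48 h. MTT (0.3 mg/ml) added 2-4 h at 37 °C, formazan dissolved in DMSO, OD 595 nm; IC50 from non-linear regression, 3 replicates.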
# PRDX1 and/or PRDX2 = assay: Resin-bound affinity chromatography with competition/elution by free compound (type of binding); parameters: species or system human; conditions: MDA-MB-231 cell lysates; pre-incubation 1.5 hours with 50 micrograms of free compound; SDS-PAGE, silver staining
# Description: The immobilization of compound (24) and the identification of its targets was accomplished using a previously described method [Orive-Ramos A, Seoane S, Ocaña A, Pandiella A, Montero JC. Regulation of the prometastatic neuregulin-MMP13 axis by SRC family kinases: therapeutic implications. Mol Oncol. 2017 Dec; 11(12): 1788-1805] (ref. 32). Briefly, 5 mg of the compound was dissolved in a coupling solution (50% dimethylformamide, 50% 0.1 M Na2CO3), and incubated with 0.5 mg of epoxy-activated sepharose 6B (GE Healthcare Life Sciences; Piscataway, NJ, USA), obtaining a CM728-coupled resin. A control resin was prepared without the compound (uncoupled). Both resins were incubated with 25 mg of cell extracts from MDA-MB-231 and BT-549 cancer cells.
# The resulting complexes were retrieved by centrifugation, washed with lysis buffer, re-suspended and boiled in loading buffer and resolved in SDS-PAGE. The gel was silver stained and the bands of interest were excised, digested by trypsin (Figure 1). […]
# In another experiment the resins collected after being incubated with cell lysates (analyzed in lanes 1 and 2) were further treated with free compound 24 to elute non-covalent compound 24 specific, binding proteins. […]
# MDA-MB-231 = assay: MTT cell viability assay, MDA-MB-231 cells; type: cell-based, human; conditions: Homo sapiens, 48 h drug exposure
# Summary of the method: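 MDA-MB-231 cells seeded in FBS-supplemented medium, treated after 24 h with compound (10 to 0,01 µM; vehicle 0.05% DMSO) for 48 h at 37 °C. MTT (0.3 mg/ml) added for 2-4 h, formazan dissolved in DMSO, OD read at 595 nm. IC50 from non-linear regression of log concentration vs normalized response.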
# HEL 92.1.7 = assay: MTT cell viability assay, HEL cells; type: cell-based; conditions: Homo sapiens, 48 h drug exposure
# Summary of the method: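 Human erythroleukemia HEL 92.1.7 cells, 1000-5000 cells/well in 10% FBS medium, treated 24 h after seeding with compound (10 to 0,01microM) or 0.05% DMSO for 48 h. MTT (0.3 mg/ml) 2-4h at 37 °C, OD 595 nm; IC50 by non-linear regression of log concentration vs normalized response, 3 replicates.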
smiles,measurement,setting,value
"O=C1C2=C(C(=O)c3c(O)ccc(O)c31)N(c1cccnc1)Cc1ccccc1O2 [Compound 24, 7,10-dihydroxy-12-(pyridin-3-yl)-12,13-dihydrobenzo[f]naphtho[2,3-b][1,4]oxazepine-6,11-dione]",IC50,K562,0.1 µM
same,manner in which compound binds to PRDX1 and/or PRDX2,PRDX1 and/or PRDX2,non-reversible covalent manner
same,IC50,MDA-MB-231,0.09 µM
same,IC50,HEL 92.1.7,0.09 µM
